Data on one molecule can be found in US6930118B2, “3-Oxadiazol-5-yl-1-aminoalkyl-1h-indole derivatives” (Amrad Operations Pty. Ltd., priority 2001, dated 2005).

The target in one experiment is T1, CB1 receptor (Mus musculus, UniProt P47746).
T1 construct: Mouse vasa deferentia were dissected with capsular connective tissue intact and set up in 20 ml organ baths; from tissue; host or cells: mouse (Swiss white) isolated vas deferens
As to the kind of experiment: Mouse electrically-stimulated isolated vas deferens bioassay (MVD). The settings on record: decrease of electrically evoked twitch force, read-out: CB1 (MVD) % inh at 1.0 μM. It counts as cell-based. As for the experimental part: Functional activity of the compounds was assayed using the mouse electrically-stimulated vas deferens bioassay, a measure of CB1 receptor function (24,25). […] CB2 functionality may be investigated using assays known to those skilled in the art; for example those described in U.S. Pat. No. 6,013,648.
Swiss white mice (35-40 g) were killed by exposure to 80% CO2 in O2 and exsanguination. Mouse vasa deferentia were dissected with capsular connective tissue intact and set up in 20 ml organ baths at 37° C. in Mg^2+-free physiological salt solution. The upper (epididymal) end was attached to an isometric force transducer (Grass FTO3C) and the lower (prostatic) end tied to a fixed support between two parallel platinum field electrodes (5 mm apart, 5 mm long). The tissue was initially stretched by 0.5 g force and allowed to equilibrate 10 min. The tissues were stimulated (Grass S88 stimulator) to contract using trains of electrical field stimulation of 3 pulses (4 Hz), 0.5 ms duration, 100 V (80% maximal voltage) every 20 s for 10 min. This electrical stimulation period was applied before and after both antagonist and agonist addition. Output from the transducer amplifier was recorded on a flat bed recorder (Gould BS 272, Cleveland, Ohio, U.S.A.). All drugs were dissolved in dimethyl sulfoxide (DMSO; Sigma, St Louis, Mo., U.S.A.) and allowed to equilibrate with the tissue for 30 min before the responses to field stimulation were assessed. Drug effects were measured as the percentage decrease of the pre-drug twitch force.

Another experiment addresses T2, CB2 receptor (Rattus norvegicus, UniProt Q9QZN9).
T2 sequence (Q9QZN9 1-343 limits assumed): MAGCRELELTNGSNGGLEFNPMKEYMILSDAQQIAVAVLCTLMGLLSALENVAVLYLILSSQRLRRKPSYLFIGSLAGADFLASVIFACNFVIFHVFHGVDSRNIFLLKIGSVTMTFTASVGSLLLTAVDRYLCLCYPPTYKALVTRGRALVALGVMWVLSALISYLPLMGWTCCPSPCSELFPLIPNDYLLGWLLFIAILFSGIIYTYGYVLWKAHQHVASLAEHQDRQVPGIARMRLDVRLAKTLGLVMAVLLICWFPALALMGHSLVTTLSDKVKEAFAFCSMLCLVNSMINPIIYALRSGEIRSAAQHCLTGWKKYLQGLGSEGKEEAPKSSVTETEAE
As to the kind of experiment: Radioligand binding assay, rat spleen membranes. The procedure: The affinity of compounds at cannabinoid receptors is routinely assessed using ligand binding assays known to those skilled in the art. Radioligand binding assays were conducted using rat cerebellum or rat spleen. The cerebellum of the rat is known to express predominantly, if not exclusively, the CB1 receptor subtype (20,21). Thus, binding constants obtained from these studies are characterised by a single affinity value, as only one receptor type is labelled. […] In contrast, biphasic binding curves in the spleen characterised by two affinity constants represent the profile of compounds showing selectivity for one receptor subtype over another. In order to determine the order of selectivity, the high and low affinity values obtained for these compounds in the spleen binding assays were compared to the single affinity estimates obtained for the cerebellum (CB1) assays.
Sprague Dawley rats (200-300 g) were killed by gassing with 80% CO2 in O2 and decapitation and the spleen excised rapidly and placed in ice-cold Tris-HCl buffer (Tris 50 mM, MgCl2 3 mM, EGTA 0.2 mM, pH 7.4). The spleen was weighed and diced using a scalpel before homogenisation in 10 volumes of Tris-HCl buffer. The homogenate was then made up to 20 volumes and centrifuged (12,600 g, 5 min, 4° C.), the supernatant was retained and centrifuged (23,800 g, 20 min, 4° C.). The pellet was resuspended in 10 volumes of buffer and assayed for protein content using the method of Bradford (Bradford, 1976) with BSA as the standard. The homogenate was then recentrifuged and the final pellet resuspended in Tris-HCl buffer at a protein concentration of 5 mg/ml and stored in 500 μl aliquots at −80° C. until used for the binding assay.
Ligand binding assays were performed in polypropylene tubes in a total volume of 1 ml containing Tris-HCl buffer, a final concentration of 1 mg/ml BSA, and varying concentrations of drugs. Tubes contained 30 μg of membrane protein and incubation was started by the addition of 100 μl of either 0.5 nM [^3H]SR141716A or 0.2 nM [^3H]WIN 55,212-2. Experiments were carried out in triplicate at 30° C. for 90 min with non-specific binding being defined as radioligand binding in the presence of 1 μM unlabelled WIN 55,212-2. Incubations were terminated by rapid filtration with a M-24 Cell Harvester (Brandel; Gaithersburg, Md., U.S.A.) using ice-cold Tris-HCl buffer containing 0.5 mg/ml BSA. Filters (Wattman GF/B) were soaked for 2 h prior to filtering in a solution of Tris-HCl buffer containing 3 mg/ml BSA and 0.5% w/w polyethyleneimine (PEI). Filters were left to dry thoroughly before placement into scintillation vials with 5 ml of scintillation cocktail (Ultima Gold LSC-cocktail; Packard Bioscience, Meriden, Conn., U.S.A.) being added. Vials were left to stand overnight before the radioactivity was determined using a Model 1409 DSA Liquid Scintillation counter (EG&E Wallac, Gaithersburg, Md., U.S.A.).
The resulting radioligand binding curves were analyzed by nonlinear regression using the program PRISM 3.0 (GraphPad Software, San Diego, Calif.) in order to derive ligand affinity estimates for the cannabinoid receptor(s).

T1 sequence (P47746 whole entry): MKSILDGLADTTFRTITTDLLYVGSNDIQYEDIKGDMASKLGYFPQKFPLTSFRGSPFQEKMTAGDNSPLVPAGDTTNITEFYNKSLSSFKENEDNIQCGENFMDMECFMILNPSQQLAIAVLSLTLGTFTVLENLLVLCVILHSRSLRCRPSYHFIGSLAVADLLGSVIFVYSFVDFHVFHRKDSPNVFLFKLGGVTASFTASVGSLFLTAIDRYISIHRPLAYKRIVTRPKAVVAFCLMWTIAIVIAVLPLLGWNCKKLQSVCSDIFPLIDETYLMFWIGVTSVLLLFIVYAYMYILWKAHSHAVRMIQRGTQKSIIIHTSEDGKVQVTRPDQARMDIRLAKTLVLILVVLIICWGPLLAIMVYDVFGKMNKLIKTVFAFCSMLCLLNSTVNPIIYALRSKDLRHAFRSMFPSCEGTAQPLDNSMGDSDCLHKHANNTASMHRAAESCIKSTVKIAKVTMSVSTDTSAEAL

What is called IC50 is the concentration at which inhibition is half-maximal. Read a high IC50 as lower potency. For the molecule `c1ccc(Cc2noc(-c3cn(CCN4CCCC4)c4ccccc34)n2)cc1` [Compound 1, 3-(3-Benzyl-[1,2,4]-oxadiazol-5-yl)-1-[2-(pyrrolidin-1-yl)ethyl]-1H-indole], the inhibition at 1 µM at CB1 receptor was 80%. This molecule yielded an IC50 on CB2 receptor of 1600 nM.
